Measured values from US4994446A, “Drug system” (Ramot - University Authority for Applied Research and …, priority 1989, dated 1991).
Where a name gives a salt, the structure may show the parent alone.

Columns and labels:
[1] = tested on: NMDA receptor channel; assay: [3H]MK-801-receptor association kinetics, repeatedly washed rat cerebral cortex membranes; type: binding
Protocol: (§1) Binding assays were performed in triplicate at 25° C. with repeatedly washed rat cerebral cortex membranes (80 μg protein) as described in Biochem. ibid. Assays were carried out in the absence or in the presence of 10^-4 M AP-5, or in the presence of 10 μM MgCl2 together with 1 μM L-glutamate and 1 μM glycine. Nonspecific binding was determined in samples containing 10^-4 M PCP. Data were expressed as the specific binding of [^3 H]MK-801 and analyzed according to the two-step binding model of interactions between noncompetitive blockers and the NMDA receptor channel. The model assumes a first order diffusion of the ligand from the outside into the interior of the channel, followed by association of the ligand with its receptor sites. Under the two extreme conditions employed here, viz., binding of [^3 H]MK-801 in the presence of agonists (unlimited diffusion) and in the absence of agonists (limited diffusion) the time courses of receptor occupation should respectively follow pseudo first order (eq. 1) and first order (eq. 2) kinetics:
([RL]eq-[RL])/[RL]eq≡exp.-(k1k2[L]/kb -k- 1)t eq. 1
1-{Kd [RL]/[L](RT ]-[RL ]}=exp.-Kb t eq. 2
where L, RT, RLeq and RL are respectively the ligand, the total number of binding sites, the bound ligand at equilibrium and at time t. ka and kb are the forward and background diffusion constants; k1 and k- 1 are the second order on-rate and the first order off-rate constants for the binding process. The overall equilibrium binding constant (Kd) is given by K- 1·kb /k1·k2.
FIG. 1A illustrates the time course of association of [^3 H] 801 (5 nM) with the NMDA receptor channel. Binding was determined at 25° C. as a function of time in the absence and in the presence of glutamate and glycine or in the presence of AP-5; whereas 1B illustrates the observed time constants (Kobs) derived from the pseudo first order plots of the association of 2, 5 and 8.6 nM [^3 H] 801 in the presence of glutamate and glycine plotted as a function of the ligand concentration. FIG. 1C is a first order plot (eq. 2) of [^3 H] 801-receptor association in the absence of agonists determined with ligand concentrations of 2 nM and 8.6 nM.

[2] = tested on: NMDA receptor channel; assay: Equilibrium binding of [3H]MK-801 (Scatchard), rat cerebral cortex membranes; conditions: for Kd: 4 hr at 25° C., read-out: Kd determined at equilibrium
Protocol: as §1
FIG. 2 left illustrates the equilibrium binding of [^3 H] 801. Binding of [^3 H] 801 as a function of its concentration was assayed after incubation for 4 hr at 25° C. in the absence or in the presence of glutamate and glycine. Also shown are data for [^3 H] 801 binding to the receptor measured after their incubation for 3 hr followed by an additional 1 hr of incubation in the presence of 100 μM AP-5. Data are expressed in the form of Scatchard plot.

[3] = tested on: NMDA receptor channel; assay: Dissociation of [3H]MK-801-receptor complexes, initiated by 100 μM unlabeled PCP; type: binding, rat
Protocol: as §1
Samples were incubated at 25° C. with 8 nM [^3 H] 801 for 2 hr. The dissociation reaction was initiated by the addition of 100 μM unlabeled PCP. […] Reactions were terminated either immediately (zero time) or at the indicated times. Bo --amount of [^3 H]MK-801 bound at zero time. Bt --amount of [^3 H] 801 bound at time t.

[4] = 5 nM ligand, with glutamate and glycine, 25° C.
[5] = presence of glutamate and glycine

SMILES | effect on rate of [3H]MK-801-receptor association ([1]; AP-5 (10^-4 M) by itself, compared to control level) | effect on equilibrium binding of preequilibrated [3H]MK-801-receptor complexes ([2]; 3 hr incubation, then 1 hr with 100 μM AP-5) | effect on rate of [3H]MK-801-receptor dissociation ([3]; 100 μM AP-5 by itself, compared to control level) | incubation time to reach equilibrium ([1]; 5 nM ligand, absence of exogenous agonists, 25° C.) [h] | association t1/2 [1, 4] [min] | time to approach equilibrium [1, 4] [min] | half times of the association reactions ([1]; absence of exogenous agonists, did not vary with ligand concentration) [min] | apparent off-rate time constant (k-1) from association ([1]; presence of glutamate and glycine (FIG. 1B)) [min⁻¹] | Kd ([1]; presence of glutamate and glycine, read-out: kinetically derived dissociation constant (Kd), ratio of off-rate and on-rate constants) [nM] | increase in ligand-receptor binding immediately after onset of binding ([1]; with glutamate and glycine vs control without) | Kd ([2]; absence of glutamate and glycine) [nM] | Kd [2, 5] [nM] | dissociation rate constant [3, 5] [min⁻¹]
N[C@H](CCCP(=O)(O)O)C(=O)O [AP-5, D(-)2-amino-5-phosphovaleric acid] | decreases the rates | did not alter the equilibrium binding | decreases the rates | – | – | – | – | – | – | – | – | – | –
C[C@]12N[C@H](Cc3ccccc31)c1ccccc12 [[^3 H]MK-801, (+) 5 methyl-10,11 dihydro-5H-dibenzo[a,d]cyclohepten-5,10-imine maleate] | – | – | – | > 6 | ~7 | 45 to 60 | 60 to 70 | 0.075 | 4.8 | ~ 9 times that of the control | 2.1 | 4.2 | 0.1
